# Laboratory results reported in EP4570793A1, “5-HT2A RECEPTOR INVERSE AGONIST, AND PREPARATION METHOD THEREFOR AND USE THEREOF” (Luye Innomind Pharma Shijiazhuang Co., Ltd., priority 2022, dated 2024).
# Read-outs that look alike come from different tables or passages of the source.
# Experiments:
# [1] = In-vitro liver microsomal stability (human); assay type: in vitro ADME; conditions: Human liver microsomes, 1 µM, 0.5 mg/mL, NADPH
# Experimental: (§1) Test Example 3. Evaluation of In-Vitro Liver Microsomal Stability
# (§2) • 1) Preparation of test sample working solution: A test sample was diluted to 100 µM with methanol. • 2) Preparation of liver microsome working solution: Liver microsomes were diluted to 0.56 mg/mL with 100 mM phosphate-buffered saline. • 3) Preparation of working solution of reduced nicotinamide adenine dinucleotide phosphate (NADPH): A proper amount of NADPH was weighed out and diluted to 20 mM with phosphate-buffered saline, and then an equal volume of a 60 mM MgCl2 solution was added. • 4) Preparation of stop solution: Tolbutamide was diluted to 20 ng/mL with acetonitrile to serve as a stop solution containing an internal standard.
# (§3) • 1) Anti-adsorption EP tubes for incubation were prepared and labeled with species, test samples, control samples (testosterone and dextromethorphan), time points (0 min, 5 min, 10 min, 20 min, 30 min, 60 min, Blank60, and NCF60), etc. • 2) 2 µL of test or control sample working solution and 178 µL of liver microsome working solution were added to each tube. For the Blank tube, 2 µL of acetonitrile was added instead of the test sample. The tubes were preincubated in a water bath at 37 °C for about 10 min, with 3 replicates set up for each sample. • 3) After the pre-incubation was completed, 20 µL of NADPH working solution was added to each tube except for the 0 min and NCF60 tubes to start the reaction. For the NCF60 tube, 20 µL of phosphate-buffered saline (containing 30 mM MgCl2) was added. In the incubation system, the final concentration of the test or control sample was 1 µM, the final concentration of liver microsomes was 0.5 mg/mL, the final concentration of NADPH was 1 mM, and the final concentration of MgCl2 was 3 mM. • 4) For the 0 min sample, 600 µL of stop solution was added, followed by the addition of the NADPH working solution. For the other samples, after each of them was incubated for the corresponding time, 600 µL of stop solution was added to stop the reaction. • 5) After the reaction was stopped, each sample was vortexed for 30 s and then centrifuged at 13500 rpm for 10 min. Then, 100 µL of the supernatant was transferred to an EP tube, and 100 µL of Milli-Q water was added. The mixture was well mixed by vortexing and analyzed by LC-MS/MS. • 6) Testosterone and dextromethorphan were used as positive control samples under the same conditions to assess the stability and reliability of the system.
# Table 2: Test data for the compounds of the present disclosure in human and rat liver microsomes
# [2] = In-vitro liver microsomal stability (dog); assay type: in vitro ADME; conditions: Dog liver microsomes, 1 µM, 0.5 mg/mL, NADPH
# Experimental: as §1, §2
# as §3, with “system. […]” for “system.”
# 5-HT2A receptor = 5-HT2A receptor (Homo sapiens, UniProt P28223); assay: Assay for 5-HT2A receptor inverse agonist activity (NIH3T3-5-HT2A R cells, Bright-Glo luciferase, cell inhibition rate)
# Experimental: Assay for 5-HT2A Receptor Inverse Agonist Activity
# • Cell line: adherent cells NIH3T3-5-HT2A R • Cell culture medium: DMEM + 10% FBS (purchased from GBICO) • Cell culture plate: 96-well white/clear bottom plate (purchased from Perkin Elmer) • Detection kit: Bright-Glo™ Luciferase (purchased from Promega) • Detection instrument: BioTek multimode microplate reader
# NIH3T3-5HT2A R cells in the logarithmic growth phase were seeded into a 96-well white/clear bottom plate at a density of 1000 cells/well and then cultured overnight in an incubator at 37 °C with 5% CO2. […] Duplicate wells were set up for each concentration. […] After the drug addition, the cells were cultured in the incubator at 37 °C with 5% CO2 for another 120 h. On the sixth day, a Bright-Glo™ Luciferase reagent was added to the cells in a volume equal to that of the cell culture medium. The plate was then incubated in the dark at room temperature for 20 min, with the plate shaker vibrating once every 5 min. The luminescence intensity was detected using a microplate reader, and the cell inhibition rate was calculated. Data were processed using GraphPad Prism 7.0 to obtain the cell inhibition rate curve and calculate IC50.
# hERG potassium channels = hERG potassium channels (Homo sapiens, UniProt Q12809); assay: cell-based
# Experimental: • Species & strain: CHO-hERG cell line (Chinese hamster ovary cells stably expressing hERG channels) • Culture medium: 90% F12, 10% fetal bovine serum, 100 µg/mL G418, and 100 µg/mL Hygromycin B • Culture conditions: incubator at 37 °C with 5% CO2 • Cryopreservation condition: liquid nitrogen
# On the day of the test, the compound was diluted with DMSO to an intermediate concentration. Then, 10 µL of the intermediate-concentration compound was transferred to 4990 µL of extracellular fluid, achieving a 500-fold dilution to obtain the final concentration to be tested.
# hERG potassium channel currents were recorded at room temperature by the whole-cell patch clamp technique in the CHO (Chinese hamster ovary) cells stably expressing hERG potassium channels. Glass microelectrodes were formed by pulling a glass electrode blank (BF150-86-10, Sutter) using a puller. The tip resistance after perfusion of electrode internal solution was about 2-5 MΩ. The glass microelectrodes could be connected to a patch clamp amplifier after being inserted into amplifier probes. The clamping voltage and data recording were controlled and recorded by a computer with a pClamp 10 software, with a sampling frequency of 10 kHz and a filtering frequency of 2 kHz. After achieving the whole-cell recording, the cells were clamped at -80 mV. The step voltage evoking hERG potassium current (IhERG) was changed from -80 mV to +20 mV by applying a 2 s depolarization voltage, followed by repolarization to -50 mV for 1 s, and then returned to -80 mV. This voltage stimulation was applied every 10 s, and after it was determined that the hERG potassium currents were stable (1 min), the administration process was started. Each test concentration of the compound was applied for at least 1 min, and at least 2 cells (n ≥ 2) were tested for each concentration.
# [3] = 5-HT2A inverse agonist activity IC50 (nM), NIH3T3-5HT2A R cells, 120 h, luminescence
# 5-HT2A receptor, sequence (P28223 whole entry): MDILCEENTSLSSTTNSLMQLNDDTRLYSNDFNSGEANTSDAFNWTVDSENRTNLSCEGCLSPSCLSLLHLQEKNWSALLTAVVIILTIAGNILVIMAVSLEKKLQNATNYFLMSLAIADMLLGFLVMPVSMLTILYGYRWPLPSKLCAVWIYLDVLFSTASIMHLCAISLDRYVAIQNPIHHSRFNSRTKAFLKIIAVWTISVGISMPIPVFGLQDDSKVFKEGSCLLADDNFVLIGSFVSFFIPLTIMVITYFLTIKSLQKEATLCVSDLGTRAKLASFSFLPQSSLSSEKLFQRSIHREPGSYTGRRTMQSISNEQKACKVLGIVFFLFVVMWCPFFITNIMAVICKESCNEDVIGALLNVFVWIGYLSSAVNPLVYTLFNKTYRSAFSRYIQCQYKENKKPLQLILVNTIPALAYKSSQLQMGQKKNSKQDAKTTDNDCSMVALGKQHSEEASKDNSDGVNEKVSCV
# hERG potassium channels, sequence (Q12809 whole entry): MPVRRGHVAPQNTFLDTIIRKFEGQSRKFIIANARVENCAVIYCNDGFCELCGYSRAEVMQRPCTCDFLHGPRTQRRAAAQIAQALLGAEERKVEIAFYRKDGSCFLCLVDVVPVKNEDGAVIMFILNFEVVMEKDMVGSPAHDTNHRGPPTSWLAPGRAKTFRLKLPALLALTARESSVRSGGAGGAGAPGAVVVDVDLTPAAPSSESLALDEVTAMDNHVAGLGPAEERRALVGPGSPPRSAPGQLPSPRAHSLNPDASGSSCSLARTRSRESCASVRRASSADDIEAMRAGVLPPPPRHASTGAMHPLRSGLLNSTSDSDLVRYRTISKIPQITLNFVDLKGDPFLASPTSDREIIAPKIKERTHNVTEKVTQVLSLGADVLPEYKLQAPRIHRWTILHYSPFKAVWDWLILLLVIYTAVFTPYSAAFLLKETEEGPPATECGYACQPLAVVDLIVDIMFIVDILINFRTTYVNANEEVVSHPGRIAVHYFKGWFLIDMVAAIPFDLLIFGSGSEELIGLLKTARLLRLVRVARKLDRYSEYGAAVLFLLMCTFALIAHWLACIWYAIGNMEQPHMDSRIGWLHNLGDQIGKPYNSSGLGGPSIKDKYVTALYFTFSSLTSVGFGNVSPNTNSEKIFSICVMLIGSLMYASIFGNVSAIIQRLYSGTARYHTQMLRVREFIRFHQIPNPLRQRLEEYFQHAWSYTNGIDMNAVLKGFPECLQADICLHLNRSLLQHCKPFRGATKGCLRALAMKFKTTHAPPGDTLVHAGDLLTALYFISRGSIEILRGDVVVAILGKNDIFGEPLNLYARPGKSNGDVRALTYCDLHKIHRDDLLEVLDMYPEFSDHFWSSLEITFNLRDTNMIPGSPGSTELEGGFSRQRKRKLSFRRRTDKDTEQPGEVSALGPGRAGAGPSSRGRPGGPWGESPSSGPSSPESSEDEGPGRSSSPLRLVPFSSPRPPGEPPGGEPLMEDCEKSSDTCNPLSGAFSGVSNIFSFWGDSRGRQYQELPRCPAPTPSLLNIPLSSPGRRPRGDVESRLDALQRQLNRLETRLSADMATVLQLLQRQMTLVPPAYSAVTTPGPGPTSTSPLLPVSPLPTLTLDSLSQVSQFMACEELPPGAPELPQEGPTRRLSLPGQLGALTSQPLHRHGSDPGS
SMILES,IC50 (5-HT2A receptor; [3]),IC50 (5-HT2A receptor),further results
"CN1CCC(N(Cc2ccc(F)cn2)C(=O)NCc2ccc(OCC(F)(F)F)nc2)C(F)(F)C1 (single isomer, unassigned) [Compound 46A]",> 1000 nM,,Remaining amount% at 60 min [1]: 1.21%; Remaining amount% at 60 min [2]: 40.77%
"CN1CCC(N(Cc2ccc(F)cn2)C(=O)NCc2ccc(OCC(F)(F)F)nc2)C(C)(C)C1 (single isomer, unassigned) [Compound 49A]",105 nM,,
"CN1CCC(N(Cc2ccc(F)cn2)C(=O)NCc2ccc(OCC(F)(F)F)nc2)C(C)(C)C1 (single isomer, unassigned) [Compound 49B]",> 1000 nM,,
"CN1CCC(N(Cc2ccc(F)cn2)C(=O)NCc2ccc(OCC(F)(F)F)nc2)C2(CC2)C1 (single isomer, unassigned) [Compound 50B]",381 nM,,
"O=C(NCc1ccc(OCC(F)(F)F)nc1)N(Cc1ccc(F)cn1)C1CCNCC1F (single isomer, unassigned) [Compound 56A]",> 1000 nM,,IC50 (hERG potassium channels): 15500 nM
"O=C(NCc1ccc(OCC(F)(F)F)nc1)N(Cc1ccc(F)cn1)C1CCNCC1F (single isomer, unassigned) [Compound 56B]",325 nM,,IC50 (hERG potassium channels): 12600 nM
"CCN1CC[C@@H](N(Cc2ccc(F)cn2)C(=O)NCc2ccc(OCC(F)(F)F)nc2)[C@@H](F)C1 (single isomer, unassigned) [Compound 69A]",> 1000 nM,,
"CCN1CC[C@H](N(Cc2ccc(F)cn2)C(=O)NCc2ccc(OCC(F)(F)F)nc2)[C@H](F)C1 (single isomer, unassigned) [Compound 69B]",156 nM,,
"CC(C)N1CC[C@@H](N(Cc2ccc(F)cn2)C(=O)NCc2ccc(OCC(F)(F)F)nc2)[C@@H](F)C1 (single isomer, unassigned) [Compound 70A]",> 1000 nM,,
"CC(C)N1CC[C@H](N(Cc2ccc(F)cn2)C(=O)NCc2ccc(OCC(F)(F)F)nc2)[C@H](F)C1 (single isomer, unassigned) [Compound 70B]",280 nM,,
"[2H]C([2H])([2H])N1CC[C@@H](N(Cc2ccc(F)cn2)C(=O)NCc2ccc(OCC(F)(F)F)nc2)[C@@H](F)C1 (single isomer, unassigned) [Compound 72A]",416 nM,,
"[2H]C([2H])([2H])N1CC[C@H](N(Cc2ccc(F)cn2)C(=O)NCc2ccc(OCC(F)(F)F)nc2)[C@H](F)C1 (single isomer, unassigned) [Compound 72B]",43.7 nM,,
"CN1CCC(N(Cc2ccc(F)cc2)C(=O)NCc2ccc(OCC(F)(F)F)nc2)C2(CC2)C1 (single isomer, unassigned) [Compound 83A]",10.4 nM,,
"CN1CCC(N(Cc2ccc(F)cc2)C(=O)NCc2ccc(OCC(F)(F)F)nc2)C2(CC2)C1 (single isomer, unassigned) [Compound 83B]",211 nM,,
"CN1CC[C@@H](N(Cc2ccc(F)cc2)C(=O)NCc2ccc3c(ccn3C)c2)[C@@H](F)C1 (single isomer, unassigned) [Compound 85A]",> 1000 nM,,
"CN1CC[C@H](N(Cc2ccc(F)cc2)C(=O)NCc2ccc3c(ccn3C)c2)[C@H](F)C1 (single isomer, unassigned) [Compound 85B]",88.7 nM,,
CN1CCC(N(Cc2ccc(F)cn2)C(=O)NCc2ccc(OCC(F)(F)F)cn2)CC1 [Compound 1],152 nM,,Remaining amount% at 60 min [1]: 85.7%; Remaining amount% at 60 min [2]: 88.7%; IC50 (hERG potassium channels): 4930 nM
CN1CCC(N(Cc2ccc(F)cn2)C(=O)NCc2ccc(OC3CC3)cn2)CC1 [Compound 2],,72.8 nM,Remaining amount% at 60 min [1]: 79.7%; Remaining amount% at 60 min [2]: 76.7%
CN1CCC(N(Cc2ccc(F)cn2)C(=O)NCc2ccc(OCC3CC3)cn2)CC1 [Compound 3],,149 nM,Remaining amount% at 60 min [1]: 94.1%; Remaining amount% at 60 min [2]: 100.0%
CN1CCC(N(Cc2ccc(F)cn2)C(=O)NCc2ccc(OCC3CC3(C)C)cn2)CC1 (stereo not shown) [Compound 4],,> 1000 nM,
CN1CCC(N(Cc2ccc(F)cn2)C(=O)NCc2ccc(OCC(F)(F)F)nc2)CC1 [Compound 5],13.1 nM,,Remaining amount% at 60 min [1]: 99.9%; Remaining amount% at 60 min [2]: 99.8%

SMILES,IC50 (5-HT2A receptor; [3]),IC50 (5-HT2A receptor),further results
CN1CCC(N(Cc2ccc(F)cn2)C(=O)NCc2ccc(OC3CC(F)(F)C3)nc2)CC1 [Compound 6],25.4 nM,,Remaining amount% at 60 min [1]: 90.8%; Remaining amount% at 60 min [2]: 98.8%
CC(C)COc1ccc(CNC(=O)N(Cc2ccc3ncccc3c2)C2CCN(C)CC2)cc1 [Compound 7],,> 1000 nM,IC50 (hERG potassium channels): 1320 nM
CC(C)COc1ccc(CNC(=O)N(Cc2ccc3ncccc3c2)C2CCN(C)CC2)nc1 [Compound 8],,> 1000 nM,
CN1CCC(N(Cc2ccc(F)cn2)C(=O)NCc2ccc3nc[nH]c3c2)CC1 [Compound 11],,672 nM,
CN1CCC(N(Cc2ccc(F)cn2)C(=O)NCc2ccc3c(c2)c(F)cn3C)CC1 [Compound 13],,184 nM,
CN1CCC(N(Cc2ccc(F)cn2)C(=O)NCc2cnc(OC3CC(F)(F)C3)c(F)c2)CC1 [Compound 19],,33.1 nM,Remaining amount% at 60 min [1]: 72.49%; Remaining amount% at 60 min [2]: 78.39%
CN1CCC(N(Cc2ccc(F)cn2)C(=O)NCc2ccc3occc3c2)CC1 [Compound 57],51.9 nM,,IC50 (hERG potassium channels): 1440 nM
CN1CCC(N(Cc2ccc(F)cn2)C(=O)NCc2ccc3sccc3c2)CC1 [Compound 58],,41 nM,
CN1CCC(N(Cc2ccc(F)cn2)C(=O)NCc2ccc3c(c2)C=CC3)CC1 [Compound 59],,86.1 nM,IC50 (hERG potassium channels): 1480 nM
CN1CCC(N(Cc2ccc(F)cn2)C(=O)NCc2ccc3c(c2)CCC3)CC1 [Compound 60],,64.4 nM,
CN1CCC(N(Cc2ccc(F)cn2)C(=O)NCc2ccc3ccccc3c2)CC1 [Compound 61],,79.2 nM,
CN1CC[C@@H](N(Cc2ccc(F)cn2)C(=O)NCc2ccc(OCC(F)(F)F)nc2)[C@H](F)C1 [Compound 67],,> 1000 nM,Remaining amount% at 60 min [1]: 66.2%; Remaining amount% at 60 min [2]: 81.4%
CN1CC2CCC(C1)C2N(Cc1ccc(F)cn1)C(=O)NCc1ccc(OCC(F)(F)F)nc1 (stereo not shown) [Compound 77],,> 1000 nM,
CN1C2CCC1CC(N(Cc1ccc(F)cn1)C(=O)NCc1ccc(OCC(F)(F)F)nc1)C2 (stereo not shown) [Compound 79],,771 nM,
Cc1cc(CN(C(=O)NCc2ccc(OCC(F)(F)F)nc2)[C@@H]2CCN(C)C[C@@H]2F)nn1C [Compound 82A],,> 1000 nM,
Cc1cc(CN(C(=O)NCc2ccc(OCC(F)(F)F)nc2)[C@H]2CCN(C)C[C@H]2F)nn1C [Compound 82B],,664 nM,
CN1CCC(N(Cc2ccc(F)cn2)C(=O)NCc2ccc3c(c2)c(C(F)(F)F)cn3C)CC1 [Compound 84],,> 1000 nM,
CN1CC[C@@H](N(Cc2ccc(F)cc2)C(=O)NCc2ccc3ncccc3c2)[C@@H](F)C1 [Compound 86A],,> 1000 nM,
CN1CC[C@H](N(Cc2ccc(F)cc2)C(=O)NCc2ccc3ncccc3c2)[C@H](F)C1 [Compound 86B],,36.8 nM,
"CC(C)COc1ccc(CNC(=O)N(Cc2ccc(F)cc2)C2CCN(C)CC2)cc1 [Pimavanserin, reference compound]",,,Remaining amount% at 60 min [1]: 70.7%; Remaining amount% at 60 min [2]: 68.5%
